Consider 11 compounds from ChEMBL document CHEMBL1133518, “5-[1'-(2'-N-Arylsulfonyl-1',2',3',4'-tetrahydroisoquinolyl)]-4, 5-dihydro-2(3H)-furanones: positive allosteric modulators of the GABA(A) receptor with a new mode of action” (J Med Chem, 2000).

Assay [1] has as its target T1, GABA-A receptor; anion channel (Rattus norvegicus) (UniProt O09028+P15431+P18506+P18508+P19969+P20236+P23574+P23576+P28471+P28473+P30191+P62813+P63079+P63138+Q91ZM7+Q9ES14). The assay can be described thus: In vitro displacement of [3H]muscimol from Gamma-aminobutyric acid A receptor of rat brain membranes, slight stimulation activity. It is filed as cell membranes. The following applies: Membrane. (In general: Displacement assays read how much labelled ligand stays bound in the presence of the test substance.)

Assay [2] addresses T1, GABA-A receptor; anion channel (Rattus norvegicus). The assay can be described thus: (§1) Displacement of [3H]flunitrazepam from GABA-A receptor of rat forebrain. The arrangement: concentration or dose not given beside the values.
Assay [3] has the same target. The assay can be described thus: In vitro displacement of [35S]TBPS from Gamma-aminobutyric acid A receptor of rat brain membranes. It is filed as cell membranes. Also noted: concentration or dose not given beside the values. The following applies: Membrane.
The target in assay [4] is T2, GABA-A receptor; alpha-1/beta-2/gamma-2 (Rattus norvegicus) (UniProt P18508+P62813+P63138). The experiment in a line: Percent stimulation of Cl- current in Xenopus laevis oocytes expressing rat GABA-A alpha-1-beta-2-gamma-2 subunits at 100 uM. In kind it is functional, cell-based. The following applies: Oocyte.
The target of assay [5] is T1, GABA-A receptor; anion channel (Rattus norvegicus). The experiment in a line: (§2) Displacement of [3H]flunitrazepam from GABA-A receptor of rat cerebellum. It is filed as tissue-based. Also noted: concentration or dose not given beside the values.
The target is the same in assay [6]. The experiment in a line: In vitro displacement of [3H]muscimol from Gamma-aminobutyric acid A receptor of rat brain membranes. The following applies: Membrane. In kind it is cell membranes.
The target is the same in assay [7]. The assay can be described thus: In vitro displacement of [3H]muscimol from Gamma-aminobutyric acid A receptor of rat brain membranes (15% stimulation). It is filed as cell membranes. The following applies: Membrane.
Assay [8] has as its target GABA-A receptor; anion channel. The description is as §1.
The target in assay [9] is GABA-A receptor; anion channel. The description is as §2. In kind it is tissue-based.
The target in assay [10] is T1, GABA-A receptor; anion channel (Rattus norvegicus). The experiment in a line: In vitro displacement of [3H]muscimol from Gamma-aminobutyric acid A receptor of rat brain membranes, range 5-10% stimulation. It is filed as cell membranes. The following applies: Membrane.
For assay [11], the target named is T2, GABA-A receptor; alpha-1/beta-2/gamma-2 (Rattus norvegicus). The experiment in a line: Percent stimulation of pentobarbital elicited Cl- current in Xenopus laevis oocytes expressing rat GABA-A alpha-1-beta-2-gamma-2 subunits at 30 uM. It is filed as functional, cell-based. The following applies: Oocyte.
The target is the same in assay [12]. The assay can be described thus: Percent stimulation of 5-alpha-pregnan-3-alpha-ol-20-one elicited Cl- current in Xenopus laevis oocytes expressing rat GABA-A alpha-1-beta-2-gamma-2 subunits at 30 uM. It is filed as functional, cell-based. The following applies: Oocyte.

Calls of active or inactive are those of the source. The calls are words filed in the database; no cut-off is given here.

Take `CN(C)S(=O)(=O)N1CCc2ccccc2[C@@H]1[C@H]1CCC(=O)O1`: the Displacement result in assay [1] was “inactive”. Besides, the Displacement in [2] came to 20%; in assay [3], 0%; in assay [5], 20%. In assay [4], this compound came in with a Stimulation of 62%.
Take `CS(=O)(=O)N1CCc2ccccc2[C@@H]1[C@H]1CCC(=O)O1`: the Displacement worked out at 20% in assay [2], 0% in [3], 0% in assay [6] and 26% in assay [5]. The Stimulation in assay [4] was 32%.
As for `O=C1CC[C@H]([C@H]2c3ccccc3CCN2S(=O)(=O)c2ccc(C(F)(F)F)cc2)O1`, the Displacement was determined as 30% in assay [2], 0% in [3], 0% in [6] and 42% in [5]. In assay [4], this compound gave a Stimulation of 90%.
For `O=C1CC[C@H]([C@H]2c3ccccc3CCN2S(=O)(=O)c2ccc3ccccc3c2)O1`, the Displacement in assay [7] stood at 15%; in assay [2] it was 9%; in [3], 0%; in assay [5] it was 14%. Moreover, the Stimulation in [4] worked out at 118%.
Take `O=C1CC[C@H]([C@H]2c3ccccc3CCN2S(=O)(=O)c2cccs2)O1`: the Displacement came out at 47% in [2], 25% in [3], 0% in assay [6] and 66% in assay [5]. In assay [4], the Stimulation is 353%.
`O=C1CC[C@H]([C@H]2c3ccccc3CCN2C(=O)OCc2ccccc2)O1` (racemic): the values for the 50% inhibitory concentration (IC50) in assay [8] and in [9] were 0.16 µM and 0.06 µM, respectively. Besides, the Displacement in assay [3] and in assay [6] was 0% in each case. In addition, in [4], the Stimulation was determined as 351%.
With `Cc1ccc(S(=O)(=O)N2CCc3ccccc3[C@@H]2[C@H]2CCC(=O)O2)cc1` (racemic), the Displacement amounted to 49% in [2], 15% in assay [3], 10% in [10] and 66% in assay [5]. The compound also had a Stimulation in [4] of 579%.
On to `O=C1CC[C@H]([C@H]2c3ccccc3CCN2S(=O)(=O)c2ccc(Cl)cc2)O1` (racemic), for which the Displacement result in assay [1] was “inactive”. The results for the Displacement in assay [2], in assay [3] and in assay [5] were 30%, 60% and 43%, respectively. For the same compound, the Stimulation in assay [4] came to 479%.
For the compound `O=C1CC[C@H]([C@H]2c3ccccc3CCN2S(=O)(=O)c2ccccc2)O1` (racemic), in assay [1], the Displacement entry is “inactive”. In addition, the Displacement was found to be 66% in assay [2], 50% in assay [3] and 74% in assay [5]. In addition, the Stimulation in assay [4] stood at 423%.
`Cc1ccc(S(=O)(=O)N2CCc3ccccc3[C@@H]2[C@H]2CCC(=O)O2)cc1` (stereo in doubt): the Stimulation in assay [11] was determined as 588%; in assay [4], 859%; in assay [12], 644%. In addition, the Displacement in assay [2] worked out at 49%; in [5], 67%.
Turning to `Cc1ccc(S(=O)(=O)N2CCc3ccccc3[C@@H]2[C@H]2CCC(=O)O2)cc1` (stereo in doubt; 2c), the Displacement in assay [2] came to 35%; in assay [5], 61%. Further, the Stimulation in [4] came to 184%.

A word on the IC50: it is the concentration that gives 50% inhibition.
